Source: the NIST ThermoML archive (doi:10.1021/je034036t)

Settings: Liquid, Pulse-echo method

COCCOCCOCCOCCOC [2,5,8,11,14-pentaoxapentadecane]
speed of sound [m/s]
Settings	293.15 K	303.15 K	313.15 K	323.15 K	333.15 K	343.15 K	353.15 K
100 kPa	1400.2	1361.6	1324.5	1288	1252	1216.6	1181.6
10000 kPa	1439.3	1402.8	1367	1332.1	1297.9	1264.2	1231.2
20000 kPa	1477.3	1441.7	1407.3	1373.8	1340.7	1308.6	1276.9
30000 kPa	1512.3	1478.2	1444.9	1412.5	1380.8	1349.9	1319.8
40000 kPa	1546.2	1513	1480.9	1449.5	1418.3	1388.8	1359.8
50000 kPa	1578.2	1546.1	1514.8	1484.2	1454.2	1425.3	1397.1
60000 kPa	1609.1	1577.7	1547.2	1517.4	1488.4	1460.1	1432.8
70000 kPa	1638.4	1607.6	1578.1	1548.8	1520.7	1493.1	1466.5
80000 kPa	1666.8	1637	1607.8	1579.3	1551.9	1524.7	1498.9
90000 kPa	1694.2	1664.9	1636.4	1608.6	1581.5	1555.3	1529.8
100000 kPa	1720.6	1692	1663.9	1636.7	1610.2	1584.4	1559.5

COCCOCCOCCOC [2,5,8,11-tetraoxadodecane]
speed of sound [m/s]
Settings	293.15 K	303.15 K	313.15 K	323.15 K	333.15 K	343.15 K	353.15 K
100 kPa	1361.9	1323.2	1285.1	1247.7	1210.9	1174.6	1138.7
10000 kPa	1403.1	1366.5	1330	1294.6	1259.5	1225.1	1191.5
20000 kPa	1442.5	1407.2	1372.2	1338.5	1304.8	1272	1240
30000 kPa	1479.3	1445.2	1411.8	1379.1	1346.9	1315.6	1284.6
40000 kPa	1514.7	1481.6	1448.8	1417.3	1386.3	1356.2	1326.2
50000 kPa	1547.8	1515.7	1484.1	1453.6	1423.4	1394.1	1365.6
60000 kPa	1579.5	1548.2	1517.5	1487.9	1458.8	1430.3	1402.4
70000 kPa	1610	1579.4	1549.7	1520.7	1492.1	1464.6	1437.6
80000 kPa	1639.3	1609.3	1580.3	1552	1524.3	1497.2	1470.9
90000 kPa	1667.4	1638.2	1609.9	1581.9	1554.8	1528.4	1502.6
100000 kPa	1694.6	1665.9	1638.1	1610.8	1584.3	1558.5	1533.4
